Patent publication US8010296B2, “Apparatus and method for removing non-discriminatory indices of an indexed dataset” (Drexel University, priority 2002, dated 2011)

System: rat liver
Details: treated rats, liver samples; selection by visual inspection and ALT measurement
Description: Forty-eight polypeptide spectra were prepared from rat liver samples under four toxicological conditions (G=4).
While it was desirable that samples from each group be completely separated from those of other groups, it was especially important that samples from Group 4 (high toxicity) were separated from the others.

SMILES	Toxicity
S=C=Nc1cccc2ccccc12 [Alpha-naphthyl Isothiocyanate (ANIT), Alpha-naphthyl Isothiocyanate]	Mild
ClC(Cl)(Cl)Cl [Carbon Tetrachloride (CCl4), Carbon Tetrachloride]	Mild
